{
  "source": "patent US11738053B2",
  "about": "“Methods and compositions for treating chronic granulomatous disease” (THE BOARD OF REGENTS OF THE UNIVERSITY OF TEXAS SYSTEM, priority 2016, dated 2023)",
  "molecules": {"B1": {"name": "gp91^phox(T196F): super-active variant of gp91^phox in which residue 196 is mutated from threonine to phenylalanine (protein, UniProt P04839 2-570, looked up, variant T196F)", "NADPH oxidase 2": "GNWAVNEGLSIFVILVWLGLNVFLFVWYYRVYDIPPKFFYTRKLLGSALALARAPAACLNFNCMLILLPVCRNLLSFLRGSSACCSTRVRRQLDRNLTFHKMVAWMIALHSAIHTIAHLFNVEWCVNARVNNSDPYSVALSELGDRQNESYLNFARKRIKNPEGGLYLAVTLLAGITGVVITLCLILIITSSTKFIRRSYFEVFWYTHHLFVIFFIGLAIHGAERIVRGQTAESLAVHNITVCEQKISEWGKIKECPIPQFAGNPPMTWKWIVGPMFLYLCERLVRFWRSQQKVVITKVVTHPFKTIELQMKKKGFKMEVGQYIFVKCPKVSKLEWHPFTLTSAPEEDFFSIHIRIVGDWTEGLFNACGCDKQEFQDAWKLPKIAVDGPFGTASEDVFSYEVVMLVGAGIGVTPFASILKSVWYKYCNNATNLKLKKIYFYWLCRDTHAFEWFADLLQLLESQMQERNNAGFLSYNIYLTGWDESQANHFAVHHDEEKDVITGLKQKTLYGRPNWDNEFKTIASQHPNTRIGVFLCGPEALAETLSKQSISNSESGPRGVHFIFNKENF"}},
  "key": {"[1]": {"conditions": "without irradiation and chemotherapy; cited from earlier work"}, "[2]": {"system": "NADPH oxidase in K562 cells", "test": "Superoxide generation (Diogenes luminescence) in K562 cells reconstituted with gp91^phox vectors", "format": "cell-based", "conditions": "K562 cells stably expressing human p47^phox and p67^phox, transfected 48 h before measurement", "protocol": "FIG. 15. The gp91^phox (T196F) mutant is superactive compared with wild-type. A cellular luminescence enhancement system for superoxide detection (Diogenes, National Diagnostics) was used. Human p47^phox and p67^phox stably expressing K562 cells were transfected with either wild-type human gp91^phox vector, gp91^phox (T196F) vector, or empty vector pcDNA 3.1 48 h before measurement. K562 cells constitutively express p22^phox and Rac. The experiment shown is representative of 3 studies.\nIn a structure/function study of gp91^phox, a super-active variant of gp91^phox (T196F) was generated in which residue 196 is mutated from threonine to phenylalanine (FIG. 15). PMA-stimulated superoxide generation was 7-fold greater when gp91^phox(T196F), versus wild-type gp91^phox, was used to reconstitute the NADPH oxidase in K562 cells. The mutant construct was made by Quik-Change™ site-directed mutagenesis of gp91^phox using sense primer […] (SEQ ID NO:1) and antisense primer […] (SEQ ID NO:2). The construct was sequenced and subcloned into fresh pcDNA3.1 (−) using NheI and XhoI."}},
  "data": [
    {"molecule": "c1cc(CN2CCCNCCNCCCNCC2)ccc1CN1CCCNCCNCCCNCC1", "note": "[AMD3100]", "values": [
      {"measurement": "effectiveness as conditioning regimen", "setting": "[1]", "value": "not to be sufficiently effective"}
    ]},
    {"molecule": "B1", "values": [
      {"measurement": "PMA-stimulated superoxide generation relative to wild-type gp91^phox", "setting": "[2]", "value": 7, "unit": "fold"}
    ]}
  ]
}
